{"source": "patent US20230077362A1", "about": "(CORTEVA AGRISCIENCE LLC, priority 2019, published 2023)", "key": {"[1]": {"test_system": "Beet Armyworm (Spodoptera exigua) (\"BAW\"), second instar larvae", "assay": "Bioassay on beet armyworm (BAW), 128-well diet tray assay", "assay_type": "in vivo", "conditions": "for pest or weed control at 50 µg/cm2: Spodoptera exigua, read-out: BAW rating; for BAW rating: Table ABC, species BAW, C = not tested, D = no activity noticed", "summary_of_the_method": "(§1)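 Sealed trays, 25° C., 14:10 light:dark, 5–7 d. Per-well % mortality recorded, mean of eight wells reported.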"}, "[2]": {"test_system": "Cabbage Looper (Trichoplusia ni) (\"CL\"), second instar larvae", "assay": "Bioassay on cabbage looper (CL), 128-well diet tray assay", "assay_type": "in vivo", "conditions": "for pest or weed control at 50 µg/cm2: Trichoplusia ni, read-out: CL rating; for CL rating: Table ABC, species CL, C = not tested, D = no activity noticed", "summary_of_the_method": "as §1"}}}
{"smiles": "COC(c1ccc(C)cc1N1C(=O)CS/C1=N\\C(=O)Nc1ccc(-n2cnc(-c3ccc(C(F)(F)F)cc3)n2)cc1F)C(F)(F)F", "note": "(stereo not shown) [Compound J696, (Z)-1-(2-Fluoro-4-(3-(4-(trifluoromethyl)phenyl)-1H-1,2,4-triazol-1-yl)phenyl)-3-(3-(5-methyl-2-(2,2,2-trifluoro-1-methoxyethyl)phenyl)-4-oxothiazolidin-2-ylidene)urea]", "values": [{"measurement": "pest or weed control at 50 µg/cm2", "setting": "[1]", "result": "50 to 100", "unit": "%"}, {"measurement": "pest or weed control at 50 µg/cm2", "setting": "[2]", "result": "50 to 100", "unit": "%"}]}
{"smiles": "CN(C)c1ccc(OCC(F)(F)F)c(N2C(=O)CS/C2=N\\C(=O)Nc2ccc(-n3cnc(-c4ccc(C(F)(F)F)cc4)n3)cc2F)c1", "note": "[Compound J697, (Z)-1-(3-(5-(Dimethylamino)-2-(2,2,2-trifluoroethoxy)phenyl)-4-oxothiazolidin-2-ylidene)-3-(2-fluoro-4-(3-(4-(trifluoromethyl)phenyl)-1H-1,2,4-triazol-1-yl)phenyl)urea]", "values": [{"measurement": "pest or weed control at 50 µg/cm2", "setting": "[1]", "result": "50 to 100", "unit": "%"}, {"measurement": "pest or weed control at 50 µg/cm2", "setting": "[2]", "result": "50 to 100", "unit": "%"}]}
{"smiles": "Cc1ccc(COCC(F)(F)F)c(N2C(=O)CS/C2=N\\C(=O)Nc2ccc(-n3cnc(-c4ccc(C(F)(F)F)cc4)n3)cc2F)c1", "note": "[Compound J698, (Z)-1-(2-fluoro-4-(3-(4-(trifluoromethyl)phenyl)-1H-1,2,4-triazol-1-yl)phenyl)-3-(3-(5-methyl-2-((2,2,2-trifluoroethoxy)methyl)phenyl)-4-oxothiazolidin-2-ylidene)urea]", "values": [{"measurement": "pest or weed control at 50 µg/cm2", "setting": "[1]", "result": "50 to 100", "unit": "%"}, {"measurement": "pest or weed control at 50 µg/cm2", "setting": "[2]", "result": "50 to 100", "unit": "%"}]}
{"smiles": "O=C(/N=C1\\SCC(=O)N1c1cc(F)ccc1COCC(F)(F)F)Nc1ccc(-n2cnc(-c3ccc(C(F)(F)F)cc3)n2)cc1F", "note": "[Compound J699, (Z)-1-(3-(5-Fluoro-2-((2,2,2-trifluoroethoxy)methyl)phenyl)-4-oxothiazolidin-2-ylidene)-3-(2-fluoro-4-(3-(4-(trifluoromethyl)phenyl)-1H-1,2,4-triazol-1-yl)phenyl)urea]", "values": [{"measurement": "pest or weed control at 50 µg/cm2", "setting": "[1]", "result": "50 to 100", "unit": "%"}, {"measurement": "pest or weed control at 50 µg/cm2", "setting": "[2]", "result": "50 to 100", "unit": "%"}]}
{"smiles": "COc1ccc(COCC(F)(F)F)c(N2C(=O)CS/C2=N\\C(=O)Nc2ccc(-n3cnc(-c4ccc(C(F)(F)F)cc4)n3)cc2F)c1", "note": "[Compound J700, (Z)-1-(2-Fluoro-4-(3-(4-(trifluoromethyl)phenyl)-1H-1,2,4-triazol-1-yl)phenyl)-3-(3-(5-methoxy-2-((2,2,2-trifluoroethoxy)methyl)phenyl)-4-oxothiazolidin-2-ylidene)urea]", "values": [{"measurement": "pest or weed control at 50 µg/cm2", "setting": "[1]", "result": "50 to 100", "unit": "%"}, {"measurement": "pest or weed control at 50 µg/cm2", "setting": "[2]", "result": "50 to 100", "unit": "%"}]}
{"smiles": "Cc1ccc(COCC(F)F)c(N2C(=O)CS/C2=N\\C(=O)Nc2ccc(-n3cnc(-c4ccc(C(F)(F)F)cc4)n3)cc2F)c1", "note": "[Compound J701, (Z)-1-(3-(2-((2,2-Difluoroethoxy)methyl)-5-methylphenyl)-4-oxothiazolidin-2-ylidene)-3-(2-fluoro-4-(3-(4-(trifluoromethyl)phenyl)-1H-1,2,4-triazol-1-yl)phenyl)urea]", "values": [{"measurement": "pest or weed control at 50 µg/cm2", "setting": "[1]", "result": "50 to 100", "unit": "%"}, {"measurement": "pest or weed control at 50 µg/cm2", "setting": "[2]", "result": "50 to 100", "unit": "%"}]}
{"smiles": "Cc1ccc(OCCC(F)(F)F)c(N2C(=O)CS/C2=N\\C(=O)Nc2ccc(-n3cnc(-c4ccc(C(F)(F)F)cc4)n3)cc2F)c1", "note": "[Compound J702, (Z)-1-(2-Fluoro-4-(3-(4-(trifluoromethyl)phenyl)-1H-1,2,4-triazol-1-yl)phenyl)-3-(3-(5-methyl-2-(3,3,3-trifluoropropoxy)phenyl)-4-oxothiazolidin-2-ylidene)urea]", "values": [{"measurement": "pest or weed control at 50 µg/cm2", "setting": "[1]", "result": "50 to 100", "unit": "%"}, {"measurement": "pest or weed control at 50 µg/cm2", "setting": "[2]", "result": "50 to 100", "unit": "%"}]}
{"smiles": "Cc1cccc(N2C(=O)CS/C2=N\\C(=O)Nc2ccc(-n3cnc(-c4ccc(OC(F)(F)F)cc4)n3)cc2F)c1COCC(F)(F)F", "note": "[Compound J703, (Z)-1-(2-Fluoro-4-(3-(4-(trifluoromethoxy)phenyl)-1H-1,2,4-triazol-1-yl)phenyl)-3-(3-(3-methyl-2-((2,2,2-trifluoroethoxy)methyl)phenyl)-4-oxothiazolidin-2-ylidene)urea]", "values": [{"measurement": "pest or weed control at 50 µg/cm2", "setting": "[1]", "result": "50 to 100", "unit": "%"}, {"measurement": "pest or weed control at 50 µg/cm2", "setting": "[2]", "result": "50 to 100", "unit": "%"}]}
{"smiles": "Cc1cccc(N2C(=O)CS/C2=N\\C(=O)Nc2ccc(-n3cnc(-c4ccc(C(F)(F)F)cc4)n3)cc2F)c1COCC(F)(F)F", "note": "[Compound J704, (Z)-1-(2-Fluoro-4-(3-(4-(trifluoromethyl)phenyl)-1H-1,2,4-triazol-1-yl)phenyl)-3-(3-(3-methyl-2-((2,2,2-trifluoroethoxy)methyl)phenyl)-4-oxothiazolidin-2-ylidene)urea]", "values": [{"measurement": "pest or weed control at 50 µg/cm2", "setting": "[1]", "result": "50 to 100", "unit": "%"}, {"measurement": "pest or weed control at 50 µg/cm2", "setting": "[2]", "result": "50 to 100", "unit": "%"}]}
{"smiles": "Cc1ccc(COCC(F)(F)F)c(N2C(=O)CS/C2=N\\C(=O)Nc2ccc(-c3ncn(-c4cccc(OC(F)(F)F)c4)n3)cc2F)c1", "note": "[Compound J705]", "values": [{"measurement": "BAW rating", "setting": "[1]", "result": "A (50-100)"}, {"measurement": "CL rating", "setting": "[2]", "result": "A (50-100)"}]}
{"smiles": "Cc1cccc(N2C(=O)CS/C2=N\\C(=O)Nc2ccc(-c3ncn(-c4cccc(OC(F)(F)F)c4)n3)cc2F)c1COCC(F)(F)F", "note": "[Compound J706]", "values": [{"measurement": "BAW rating", "setting": "[1]", "result": "A (50-100)"}, {"measurement": "CL rating", "setting": "[2]", "result": "A (50-100)"}]}
{"smiles": "Cc1ccc(COCC(F)(F)F)c(N2C(=O)CS/C2=N\\C(=O)Nc2ccc(-c3ncn(-c4cccc(C(F)(F)F)c4)n3)cc2F)c1", "note": "[Compound J710]", "values": [{"measurement": "BAW rating", "setting": "[1]", "result": "A (50-100)"}, {"measurement": "CL rating", "setting": "[2]", "result": "A (50-100)"}]}
{"smiles": "CCOCc1ccc(C)cc1N1C(=O)CS/C1=N\\C(=O)Nc1ccc(-c2ncn(-c3cccc(OC(F)(F)F)c3)n2)cc1F", "note": "[Compound J711]", "values": [{"measurement": "BAW rating", "setting": "[1]", "result": "A (50-100)"}, {"measurement": "CL rating", "setting": "[2]", "result": "A (50-100)"}]}
{"smiles": "Cc1ccc(COCC(F)(F)F)c(N2C(=O)CS/C2=N\\C(=O)Nc2ccc(-c3ncn(-c4cccc(OC(F)(F)F)c4)n3)cc2C)c1", "note": "[Compound J722]", "values": [{"measurement": "BAW rating", "setting": "[1]", "result": "A (50-100)"}, {"measurement": "CL rating", "setting": "[2]", "result": "A (50-100)"}]}
{"smiles": "CCOCc1ccc(C)cc1N1C(=O)CS/C1=N\\C(=O)Nc1ccc(-c2ncn(-c3cccc(C(F)(F)F)c3)n2)cc1F", "note": "[Compound J723]", "values": [{"measurement": "BAW rating", "setting": "[1]", "result": "A (50-100)"}, {"measurement": "CL rating", "setting": "[2]", "result": "A (50-100)"}]}
{"smiles": "CCOCc1ccc(C)cc1N1C(=O)CS/C1=N\\C(=O)Nc1ccc(-c2ncn(-c3cccc(OC(F)(F)F)c3)n2)cc1C", "note": "[Compound J726]", "values": [{"measurement": "BAW rating", "setting": "[1]", "result": "A (50-100)"}, {"measurement": "CL rating", "setting": "[2]", "result": "A (50-100)"}]}
{"smiles": "Cc1ccc(COCC(F)(F)F)c(N2C(=O)CS/C2=N\\C(=O)Nc2ccc(-c3ncn(-c4cccc(C(F)(F)F)c4)n3)cc2C)c1", "note": "[Compound J727]", "values": [{"measurement": "BAW rating", "setting": "[1]", "result": "A (50-100)"}, {"measurement": "CL rating", "setting": "[2]", "result": "A (50-100)"}]}
{"smiles": "Cc1ccc(C(C)C)c(N2C(=O)CS/C2=N\\C(=O)Nc2ccc(-n3cnc(-c4ccc(OC(F)(F)F)cc4)n3)cc2Cl)c1", "note": "[Compound J728, (Z)-1-(2-Chloro-4-(3-(4-(trifluoromethoxy)phenyl)-1H-1,2,4-triazol-1-yl)phenyl)-3-(3-(2-isopropyl-5-methylphenyl)-4-oxothiazolidin-2-ylidene)urea]", "values": [{"measurement": "pest or weed control at 50 µg/cm2", "setting": "[1]", "result": "50 to 100", "unit": "%"}, {"measurement": "pest or weed control at 50 µg/cm2", "setting": "[2]", "result": "50 to 100", "unit": "%"}]}
{"smiles": "COC(c1ccc(C)cc1N1C(=O)CS/C1=N\\C(=O)Nc1ccc(-n2cnc(-c3ccc(OC(F)(F)F)cc3)n2)cc1Cl)C(F)(F)F", "note": "(stereo not shown) [Compound J729, (Z)-1-(2-Chloro-4-(3-(4-(trifluoromethoxy)phenyl)-1H-1,2,4-triazol-1-yl)phenyl)-3-(3-(5-methyl-2-(2,2,2-trifluoro-1-methoxyethyl)phenyl)-4-oxothiazolidin-2-ylidene)urea]", "values": [{"measurement": "pest or weed control at 50 µg/cm2", "setting": "[1]", "result": "50 to 100", "unit": "%"}, {"measurement": "pest or weed control at 50 µg/cm2", "setting": "[2]", "result": "50 to 100", "unit": "%"}]}
{"smiles": "COCc1ccc(C)cc1N1C(=O)CS/C1=N\\C(=O)Nc1ccc(-n2cnc(-c3ccc(OC(F)(F)F)cc3)n2)cc1Cl", "note": "[Compound J730, (Z)-1-(2-Chloro-4-(3-(4-(trifluoromethoxy)phenyl)-1H-1,2,4-triazol-1-yl)phenyl)-3-(3-(2-(methoxymethyl)-5-methylphenyl)-4-oxothiazolidin-2-ylidene)urea]", "values": [{"measurement": "pest or weed control at 50 µg/cm2", "setting": "[1]", "result": "50 to 100", "unit": "%"}, {"measurement": "pest or weed control at 50 µg/cm2", "setting": "[2]", "result": "50 to 100", "unit": "%"}]}
